Data on 5 compounds can be found in US20130116241A1, “NOVEL INHIBITOR COMPOUNDS OF PHOSPHODIESTERASE TYPE 10A” (AbbVie Inc., priority 2011, published 2013).

Assay [1] concerns rats. As to conditions: cited from earlier work.
In assay [2] the test system is rats. As to conditions: cited from earlier work. This is another data set of the same source.
Assay [3] relates to rats. As to conditions: rat, in vivo; cited from earlier work.
The next assay concerns the target human PDE10A (UniProt Q9Y233). Description: Measurement of PDE activity (recombinant enzyme, HTRF cAMP kit). In kind it is biochemical. To be noted: Table 1, substrate 20 nM for PDE10, 60 minutes at 29 C, read-out: IC50. In outline:
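HTRF detection of cAMP left after hydrolysis, expressed as percent of uninhibited control to derive IC50. Reaction: serially diluted inhibitor mixed with recombinant enzyme, started with 20 nM cAMP, 60 min at 29 °C in Tris-HCl pH 7.5 buffer containing MgCl2 and BSA.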

The structures appear in SMILES notation. Where a name gives a salt, the structure may show the parent alone.

human PDE10A, sequence (Q9Y233 290-1055 limits assumed): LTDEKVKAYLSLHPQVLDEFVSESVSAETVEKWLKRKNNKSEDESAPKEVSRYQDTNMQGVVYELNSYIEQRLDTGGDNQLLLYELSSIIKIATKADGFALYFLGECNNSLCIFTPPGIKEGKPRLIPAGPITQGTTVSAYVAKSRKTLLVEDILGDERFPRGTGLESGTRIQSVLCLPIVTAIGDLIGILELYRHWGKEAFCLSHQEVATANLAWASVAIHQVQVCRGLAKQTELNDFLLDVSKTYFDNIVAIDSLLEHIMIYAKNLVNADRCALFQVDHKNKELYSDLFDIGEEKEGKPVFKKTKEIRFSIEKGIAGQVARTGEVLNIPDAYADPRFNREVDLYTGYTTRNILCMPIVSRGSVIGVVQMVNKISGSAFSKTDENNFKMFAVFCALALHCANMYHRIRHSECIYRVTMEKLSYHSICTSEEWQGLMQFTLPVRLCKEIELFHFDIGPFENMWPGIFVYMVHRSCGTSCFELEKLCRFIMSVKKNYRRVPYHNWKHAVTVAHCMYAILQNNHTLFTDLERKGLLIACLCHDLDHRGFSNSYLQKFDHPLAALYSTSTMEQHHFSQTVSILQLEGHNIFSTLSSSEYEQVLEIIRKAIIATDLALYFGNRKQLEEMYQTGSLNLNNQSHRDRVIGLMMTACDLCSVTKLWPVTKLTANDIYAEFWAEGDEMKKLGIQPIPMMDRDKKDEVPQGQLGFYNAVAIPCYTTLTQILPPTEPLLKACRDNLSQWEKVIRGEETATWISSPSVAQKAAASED

Take `COc1ccc(Cc2nccc3cc(OC)c(OC)cc23)cc1OC` [Papaverine, papaverine]: in the assay with rats [1] (compound alone), the “catalepsy on its own” value is recorded as “did not cause catalepsy on its own”. For the same compound, in the assay with rats [1] (with haloperidol), the “cataleptic effect of the D2 receptor antagonist haloperidol” value was “potentiated the cataleptic effect”. For the same compound, the “hyperactivity induced by PCP” value in the assay with rats [2] is on record as “reduced hyperactivity”. In the assay with rats [3], the “reduction of amphetamine-induced hyperactivity” value is on record as “insignificant”.

Take `O=c1c2c(-c3cccnc3)cccc2cnn1CCc1ccc2ccccc2n1` [Example 126, 8-(Pyridin-3-yl)-2-[2-(quinolin-2-yl)ethyl]phthalazin-1(2H)-one]: the IC50 (in general, the point on the concentration scale where inhibition reaches its midpoint) at human PDE10A was less than 100 nM. Take `O=c1c2c(-c3ccc(F)nc3)cccc2ccn1C1CC1c1ccc2ccccc2n1` (single isomer, unassigned) [Example 237, anti (−) 8-(6-fluoropyridin-3-yl)-2-(2-(quinolin-2-yl)cyclopropyl)isoquinolin-1(2H)-one]: the IC50 at human PDE10A was less than 100 nM. With `O=c1c2c(C3CCNCC3)csc2ccn1CCc1ccc2ccccc2n1` [Example 215, 3-(Piperidin-4-yl)-5-[2-(quinolin-2-yl)ethyl]thieno[3,2-c]pyridin-4(5H)-one trifluoroacetate], at human PDE10A, the half-inhibitory concentration (IC50) was 100 to 200 nM.

As for `COc1ncc(-c2cccc3cnn(CCc4cn5ccccc5n4)c(=O)c23)cn1` [compound 347, 2-[2-(imidazo[1,2-a]pyridin-2-yl)ethyl]-8-(2-methoxypyrimidin-5-yl)phthalazin-1(2H)-one], the IC50 on human PDE10A was 100 to 200 nM.
